Assay [1] has as its system isolated rat aorta. The experiment in a line: Cross-tolerance studies on aortic rings (GTN / Pet-12 pre-treatment). In kind it is cell-based. The following applies: aorta pre-treated with GTN. The method, then: Cross-tolerance studies were conducted using the same technique described above for measuring vasorelaxation of aortic rings from rats. Two groups of aortic rings samples were pre-treated with GTN, then one group was measured for vasorelaxation by GTN and the second group for vasorelaxation by Pet-12, an exemplary NO-donor according to the present invention. For the opposite cross-tolerance studies, two groups of aortic rings samples were pre-treated with Pet-12, then one group was measured for vasorelaxation by GTN and the second group for vasorelaxation by Pet-12.

In assay [2] the test system is c-GMP in slices of thoracic aorta of rats. Kind of assay: Cyclic-GMP measurement in aortic rat tissue (radioimmunoassay). In kind it is cell-based. Here is the method: GTN (10^−6 M) was added to the chamber and, 1 minute after exposure to the drug, rings (usually 3-5) were taken, wrapped with aluminum foil and immediately frozen in liquid nitrogen for storage. Control sample group was treated with the vehicle solution only. At the time of analysis, rings were thawed, blotted over a dry gauzed and weighted. A known weight of tissue was homogenized in 2 ml ice-cold modified Hank's balanced salt solution containing (in gram/liter) NaCl 8; KCl 0.4; glucose 1; KH2PO4 0.06; Na2HPO4 0.047; Phenol red 0.017 and further containing 25 mM EDTA (disodium salt). The homogenate was centrifuged at 4000 g (force units) for 10 minutes at 2-4° C. and the supernatant was thereafter transferred into fresh pre-cooled test tube containing 1 ml of acetonitrile. The tubes were vortex mixed for a few seconds and subsequently centrifuged at 4000 g for 5 minutes at 2-4° C., to remove the precipitated protein. Each supernatant was transferred into a clean test tube and evaporated to dryness under a stream of nitrogen at 55° C. The dry residue was reconstituted with 10 volumes of Tris-EDTA buffer pH 7.5 (0.05 M Tris containing 4 mM EDTA). Aliquots of 100 μl of the reconstituted solution in duplicate were used for c-GMP measurements using Amersham RIA kit, as is described in Haj-Yehia & Benet [Pharmacology, 1995, 273, 1, pp. 94-100]. Standard curves were plotted with six concentrations (0, 0.5, 1, 2, 4 and 8 pmoles of c-GMP per tube).
The NO-tolerance effect of GTN and NO-donor compounds according to the present invention was measured by following the production of c-GMP in slices of thoracic aorta of rats. Thus, the production of c-GMP was measured as described in the methods section above for the reference NO-donor compound GTN, and for the NO-donors of the present invention Pet-2, Pet-3, Pet-7, Pet-8, Pet-10, Pet-12, Pet-24, Pet-59, Pet-106, Pet-107, Pet-120, Pet-147, Pet-149, Pet-152, Pet-154 and Pet-155.

A further assay has as its system Sprague-Dawley rats. The experiment in a line: Effects of Pet-120 on the endothelial dysfunction of angiotensin II induced hypertension in rats. In kind it is in vivo, rat. As to conditions: Pet-120 with Ang II for 14 days; aortic rings, acetylcholine curves. Here is the method:
Male Sprague-Dawley rats were housed in separate cages and maintained in a temperature regulated room on a 12-hour light/dark cycle. Throughout the experiments, animals had free access to water and standard rat chow. Rats weighing 270 to 310 grams at the beginning of the experiments were anesthetized with ketamine and xylazine (50 and 10 mg/kg, respectively), and an osmotic miniature pump (model 2002; Alza Co) was implanted subcutaneously at the dorsum of the neck. Rats were selected at random and divided into three groups. The first group used as control and received the vehicle alone. The second group received angiotensin II (Ang II, Sigma Chemical Co) infusion (n=3) at a rate of 80 ng/minute or vehicle (n=2; for a period of 14 days. The third group (n=3) received both Ang II (as the second group) and Pet-120 at rate 167 ng/minute for 14 days. At the end of the treatment, rats were anesthetized with ketamine and xylazine (50 and 10 mg/kg, respectively), and both the osmotic pumps and the catheters were removed, and the animals were allowed to recover for 24 hours before initiation of the experiment.
Thereafter a section of the thoracic aorta (with endothelium) was removed from the rats, dissected free of fat and connective tissue in oxygenated Krebs-Hanseliet solution (pH 7.4). […]

The test system of assay [3] is isolated rat aorta. Kind of assay: In vitro induction of tolerance to NO releasing compounds (vasorelaxation of pre-exposed aortic rings). It is filed as cell-based. As to conditions: rings pre-treated with epinephrine and then with 0.44 mM of the same compound. The method, then: Aortic rings were prepared as described hereinabove, and were exposed to 0.44 mM GTN (vehicle was water:ethanol:propyleneglycol at proportional ratio of 1:1:1) for 1 hour before CCRC construction, to thereby induce tolerance to nitroglycerine. At the end of the tolerance induction period, rings were thrice washed with the path buffer (Krebs-bicrbonate) every 15 minutes for the following hour and then CCRC for vasorelaxation on GTN-induced tolerance rings were constructed for GTN (pretreated versus untreated rings, FIG. 15), in order to verify the ability to induce and measure GTN tolerance induction in vitro
Attempted induction of tolerance to the NO-donating compounds of the present invention was performed under the same conditions as for GTN. Thus, in an exemplary experiment, rings were exposed to 0.44 mM solution of Pet-3 in the attempt to induce tolerance for Pet-3. CCRC were then measured for the vasorelaxing effect of Pet-3 on a group of rings which were pre-exposed to Pet-3 as to induce tolerance to Pet-3, and for an untreated control group. The above protocol was repeated with Pet-2, Pet-7, Pet-8, Pet-12, Pet-24, Pet-43, Pet-149 and Pet-152.

Entries after “also recorded” stand apart in the source; their conditions may differ.

Consider `Cc1nc(-c2ccc([N+](=O)[O-])cc2)sc1CCO[N+](=O)[O-]` [Pet-120, 4-Methyl-5-(2-nitrooxy-ethyl)-2-(4-nitro-phenyl)-thiazole], for which, in the assay with isolated rat aorta [1], the “vasorelaxation in rings made tolerant to GTN (cross-tolerance)” value is “can even induce vasorelaxation in rat aorta of rats after tolerance has been induced therein by chronic use of GTN”. Also, in assay [2] (isolated rat aorta, radioimmunoassay), the “accumulation of cyclic-GMP as compared with GTN” value is listed as “increased levels of cGMP”. Besides, the “cGMP Post-infusion” value in assay [2] (rat thoracic aorta, post-infusion (repeated treatment)) stood at 133 ± 12 pmol/g tissue. In the assay with Sprague-Dawley rats, the “vasorelaxation after Ang II induced hypertension” value is reported as “notable capacity to induce vasorelaxation”. For the same compound, in the assay on isolated rat aorta [3], the “tolerance induction in vitro (vasorelaxation, pre-treated versus control rings)” value is “absence of tolerance induction; also recorded: lack of tolerance inducement”.

Values taken from US8134010B2, “Thiazole-based nitric oxide donors having aryl substituent(s) and uses thereof” (priority 2004, dated 2012).
